The results in this text go back to patent US11028079B2 (ConverGene LLC, priority 2015, dated 2021).

Bounds are passed on as bounds.

The target in this assay is T1, BRD4 bromodomains (Homo sapiens, UniProt O60885).
T1 construct: fused on or other part: T7 phage capsid protein (phage-display fusion; the phage DNA is read out by qPCR)
As to the kind of experiment: BROMOscan bromodomain competition binding assay (DiscoveRx). As to conditions: Kd from 11 compound concentrations ranging from 0 to 10 μM, read-out: BROMOscan Relative Activity. The method in brief: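 Compounds in 0.1% DMSO/0.9% MEG competed with a solid-phase acetylated peptide for T7 phage-fused BRD4 bromodomains, with the retained bromodomain measured by qPCR.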
Take `Cc1noc(C)c1-c1ccc2nc(-c3cnn(CCN4CCOCC4)c3)nc(NCc3cccc(Cl)c3)c2c1` [Example 28, N-(3-chlorobenzyl)-6-(3,5-dimethylisoxazol-4-yl)-2-(1-(2-morpholinoethyl)-1H-pyrazol-4-yl)quinazolin-4-amine]: the Kd is below 500 nM. Turning to `Cc1noc(C)c1-c1ccc2nc(C(=O)NC3CCS(=O)(=O)CC3)cc(NCc3cccc(Cl)c3)c2c1` [Example 235, 4-((3-chlorobenzyl)amino)-6-(3,5-dimethylisoxazol-4-yl)-N-(1,1-dioxidotetrahydro-2H-thiopyran-4-yl)quinoline-2-carboxamide], the Kd was below 500 nM. With `C[C@H](O)CN1CCN(c2nc(NCc3cccc(Cl)c3)c3cc(-c4ccc(=O)n(C)c4)ccc3n2)CC1` [Example 111, (S)-5-(4-((3-chlorobenzyl)amino)-2-(4-(2-hydroxypropyl)piperazin-1-yl)quinazolin-6-yl)-1-methylpyridin-2(1H)-one], the Kd is below 500 nM. Consider `Cc1noc(C)c1-c1ccc2nc(C(=O)NCc3ccc(Cl)nc3)nc(NCc3cccc(Cl)c3)c2c1` [Example 203, 4-((3-chlorobenzyl)amino)-N-((6-chloropyridin-3-yl)methyl)-6-(3,5-dimethylisoxazol-4-yl)quinazoline-2-carboxamide], for which the Kd is below 500 nM. Take `Cc1noc(C)c1-c1ccc2nc(C(=O)NC3CCN(S(C)(=O)=O)CC3)nc(NCc3cccc(Cl)c3)c2c1` [Example 201, 4-((3-chlorobenzyl)amino)-6-(3,5-dimethylisoxazol-4-yl)-N-(1-(methylsulfonyl)piperidin-4-yl)quinazoline-2-carboxamide]: the Kd is below 500 nM. For `Cc1noc(C)c1-c1ccc2nc(N3CCN(C(=O)CO)CC3)nc(N3CCOC[C@@H]3c3ccccc3)c2c1` [Example 305, (S)-1-(4-(6-(3,5-dimethylisoxazol-4-yl)-4-(3-phenylmorpholino)quinazolin-2-yl)piperazin-1-yl)-2-hydroxyethan-1-one], the Kd is below 500 nM.
